# Measurements: patent US20250034200A1, “Prodrugs of Neurosteroid Analogs and Uses Thereof” (priority 2021, published 2025)
# Structures can show the parent of a compound that is named as a salt. Where two headings read alike, the source gives them in different places.
# How the values were obtained:
# [1] = Aqueous stability assay (HPLC, pseudo first-order half-life); assay type: physicochemical; settings: DPBS pH 7.0-7.3, 1 mg/mL, room temperature
# Protocol: Aqueous stability experiments were performed on an Agilent 1100 HPLC equipped with an Agilent 1200 autosampler. HPLC grade solvents were exclusively used during analysis, with acetonitrile being purchased from Sigma Aldrich, and water and formic acid provided by Fisher Scientific. […]
# […] All mixtures were then sonicated for 5 min or stirred until complete dissolution was achieved. Any precipitate observed in sample solutions was filtered with a PTFE syringe filter prior to analysis. Immediately after sample preparation, injection by the HPLC autosampler was performed, which was recorded as the initial time point (t=0 min). Samples were then kept in the autosampler at room temperature and injected at designated intervals without additional filtration or sample modification. Next, the area of the parent peak in each chromatogram was determined by automated integration in the Agilent ChemStation software. Pseudo first-order half-lives were then ascertained by calculating the percent of the parent compound remaining after each time point. Plots of time (x-axis) vs. the natural logarithm of percent parent remaining (y-axis) were subsequently constructed to determine the slope. Finally, the aqueous stability was evaluated using the following equation:
# The HPLC conditions were as follows: injection volume, 1 μL; column temperature: 40° C.; detector: 254 nm; stationary phase: Zorbax Eclipse XDB-C18 (4.6×150 mm, 5 μm); flow rate: 1 mL/min; mobile phase: 80-95% acetonitrile in H2O (0.1% formic acid).
# [2] = Nephelometry (aqueous solubility); assay type: physicochemical; settings: DPBS with 1% DMSO, aqueous buffer, kinetic from dmso stock, DPBS pH 7.0-7.3, 1% DMSO, 25° C.
# Text: Well A1 of the plate contained 100% DMSO.
# [3] = Plasma stability assay (LC-MS/MS); assay type: in vitro ADME; settings: human plasma, 37° C., 3 μM
# Protocol: Procaine and procainamide were purchased from Sigma Aldrich. HPLC-grade acetonitrile, water, methanol, and formic acid were purchased from Fisher Scientific. Human plasma (Cat. No. […]2N) was obtained from BIOIVT, and PBS (1×Dulbecco's, pH 7.4) from Thermo Fisher Scientific.
# Test compounds were dissolved in DMSO to make a stock solution of 10 mM and then diluted to 500 μM in buffer or 70% methanol. Human plasma was thawed at ambient temperature and aliquoted (994.0 μL) to a 1.5 mL Eppendorf tube in duplicates (vials A and B) for each compound. The plasma was incubated at 37° C. for 10 min in an incubator shaker at 150 RPM; the reaction was initiated by addition of the test compound (6.0 μL), followed by vortex mixing. The total reaction volume was 1000 μL, the final organic solvent concentrations were […] (when 70% methanol was used for dilution) and 0.03% DMSO, and the final concentration of the test compound was 3 μM. The spiked plasma samples were incubated at 37° C. for 4 h. The reactions were terminated at time point 0, 15, 30, 60, 120, 180, and 240 min by taking a 100 μL aliquot from the test incubation mixture and immediately quenching it by adding it into ice-cold acetonitrile or methanol (150 μL) containing 2 μM internal standard (ISTD), followed by vortex mixing. The ISTD was d5-7-ethoxy coumarin. The samples were then centrifuged at 15000 RPM for 25 min at 4° C., and the supernatant was transferred to an LC-MS vial for analysis by LC-MS/MS. Each time point was tested in duplicates followed by in-between blank washes to avoid carryover and to equilibrate the column.
# Procaine (poor plasma stability) and procainamide (good plasma stability) were used as controls at the same concentration as that of the test compound. These controls were run in parallel to test the assay's competency. Matrix blank was prepared by adding acetonitrile or methanol containing ISTD to plasma samples without any of the test or control compounds. Also, an additional control sample was made to simply monitor compound degradation in PBS buffer.
# Below is a summary of samples prepared for a given test compound in a typical plasma stability assay: • Test compound (TC): 994 μL human plasma+6.0 μL TC (Vial A) 994 μL human plasma+6.0 μL TC (Vial B) • Control: 596 μL human plasma+3.6 μL (procaine+procainamide) • Blank matrix: 500 μL PBS buffer+100 μL human plasma • Additional control: 142 μL PBS buffer+0.9 μL TC • Quenching mixture: 150 μL acetonitrile or methanol with ISTD (2 μM) • Final volume: 250 μL (100 μL from the incubation mixture+150 μL quenching mixture; final ISTD conc.: 1.2 μM)
# LC-MS/MS analysis was performed using Agilent 1260 Infinity II HPLC, coupled with an Agilent G6460 triple quadrupole mass spectrometer (Agilent Technologies, USA). The data were acquired and processed using the Agilent 6460 Quantitative Analysis data processing software.
# Reverse-phase HPLC separation for each compound was achieved on an Agilent InfinityLab Poroshell 120 C18 column (2.1×50 mm, 2.7 μm) with a mobile phase composed of methanol/water with 0.1% formic acid or acetonitrile/water with 0.1% formic acid at a flow rate of 0.5 mL/min. Each method was developed in the presence of the ISTD. The column temperature was maintained at 40° C. The detection was operated using the Agilent Jet-Stream electrospray positive ionization under the multiple reaction monitoring mode. The mass spec conditions were as follows: dwell time 100 ms; gas flow 10 L/min; nebulizer pressure 45 psi; delta EMV 200 V.
# Plots of time (x-axis) vs. the natural logarithm of percent parent remaining (y-axis) were subsequently constructed to determine the slope. Finally, the plasma stability was evaluated using the following equation: […]
# [4] = male, Sprague Dawley, rat, in vivo
# Protocol: Test System—Healthy male Sprague Dawley rats (8-12 weeks old) weighing between 200 to 250 g were procured from Global, India. […] Temperature and humidity were maintained at 22±3° C. and 30-70%, respectively and illumination was controlled to give a sequence of 12 h light and 12 h dark cycle. Temperature and humidity were recorded by auto-controlled data logger system. All the animals were provided with laboratory rodent diet (Envigo Research private Ltd, Hyderabad). Reverse osmosis water treated with ultraviolet light was provided ad libitum.
# Design—Rats (n=3 per treatment group, serial sampling) were administered a solution of either normal saline vehicle or test compound in normal saline at 2 mg/kg (IV) or 10 mg/kg (IM) with a dosing volume of 5 mL/kg (IV) or 1 mL/kg (IM).
# Sample Collection—Blood samples (approximately 60 μL) were collected under light isoflurane anesthesia (Surgivet®) from retro orbital plexus from a set of three rats at 0.08, 0.25, 0.5, 1, 2, 4, 6, 8 and 10 h (IV) or 0.25, 0.5, 1, 2, 4, 6, 8 and 10 h (IM). Immediately after blood collection, plasma was harvested by centrifugation 4000 rpm, 10 min at 40° C. and samples were stored at −70±10° C. until bioanalysis.
# Data Analysis—Concentrations of the test compound and its parent compound, progesterone C20-oxime, in rat plasma were determined by fit-for-purpose LC-MS/MS method by Sai Life Sciences. […] Cmax represents the mean observed maximum concentration of analyte. Tmax represents the average time at observed Cmax. Areas under the curve (AUC0-last) were calculated via the linear trapezoidal rule using GraphPad Prism v9.
# [5] = buffer, read-out: PBS t1/2 (converted)
# [6] = buffer, d (days), read-out: PBS t1/2 (converted)
Compound,"half-life [1, 5] [h]",solubility at 90 min [2] [µM],PBS t1/2 [1] [h],Plasma % rmn at 2 h [3] [%],further results
"C/C(=N\OC(=O)N(C)CCNCCO)[C@H]1CC[C@H]2[C@@H]3CCC4=CC(=O)CC[C@]4(C)[C@H]3CC[C@]12C [32d, 2-((((((E)-1-((8S,9S,10R,13S,14S,17S)-10,13-dimethyl-3-oxo-2,3,6,7,8,9,10,11,12,13,14,15,16,17-tetradecahydro-1H-cyclopenta[a]phenanthren-17-yl)ethylidene)amino)oxy)carbonyl)(methyl)amino)-N-(2-hydroxyethyl)ethan-1-aminium chloride]",30.4 ± 5,> 500,–,–,Plasma t1/2 [3]: 2.8 h
"C/C(=N\OC(=O)NC[C@@H]1CCCN1)[C@H]1CCC2[C@@H]3CCC4=CC(=O)CC[C@]4(C)[C@H]3CC[C@@]21C (stereo partly drawn) [32g, (8S,9S,10R,13S,17S)-10,13-dimethyl-17-((E)-1-((((((S)-pyrrolidin-2-yl)methyl)carbamoyl)oxy)imino)ethyl)-1,2,6,7,8,9,10,11,12,13,14,15,16,17-tetradecahydro-3H-cyclopenta[a]phenanthren-3-one hydrochloride]",–,> 750,–,–,"half-life at 1 mg/mL [1, 6]: 396 h; half-life at 3 µM ([3]; read-out: Plasma t1/2 (converted)): 9.6 h"
"CNCCN(C(=O)O/N=C(\C)[C@H]1CC[C@H]2[C@@H]3CCC4=CC(=O)CC[C@]4(C)[C@H]3CC[C@]12C)C(C)C.O=C(O)C(F)(F)F [53a, (E)-9-((8S,9S,10R,13S,14S,17S)-10,13-dimethyl-3-oxo-2,3,6,7,8,9,10,11,12,13,14,15,16,17-tetradecahydro-1H-cyclopenta[a]phenanthren-17-yl)-5-isopropyl-7-oxa-2,5,8-triazadec-8-en-6-one 2,2,2-trifluoroacetate]",–,> 750,19.72 ± 0.38,41,–
"CNCCN(C(=O)O/N=C(\C)[C@H]1CC[C@H]2[C@@H]3CCC4=CC(=O)CC[C@]4(C)[C@H]3CC[C@]12C)C1CC1.O=C(O)C(F)(F)F [53b, (E)-5-cyclopropyl-9-((8S,9S,10R,13S,14S,17S)-10,13-dimethyl-3-oxo-2,3,6,7,8,9,10,11,12,13,14,15,16,17-tetradecahydro-1H-cyclopenta[a]phenanthren-17-yl)-7-oxa-2,5,8-triazadec-8-en-6-one 2,2,2-trifluoroacetate]",–,> 750,28.16 ± 0.04,45,–
"CNCCN(C(=O)O/N=C(\C)[C@H]1CC[C@H]2[C@@H]3CCC4=CC(=O)CC[C@]4(C)[C@H]3CC[C@]12C)C1CCCC1.O=C(O)C(F)(F)F [53d, (E)-5-cyclopentyl-9-((8S,9S,10R,13S,14S,17S)-10,13-dimethyl-3-oxo-2,3,6,7,8,9,10,11,12,13,14,15,16,17-tetradecahydro-1H-cyclopenta[a]phenanthren-17-yl)-7-oxa-2,5,8-triazadec-8-en-6-one 2,2,2-trifluoroacetate]",–,> 750,10.70 ± 0.15,65,–
"CNCCN(CC(C)C)C(=O)O/N=C(\C)[C@H]1CC[C@H]2[C@@H]3CCC4=CC(=O)CC[C@]4(C)[C@H]3CC[C@]12C.O=C(O)C(F)(F)F [53e, (E)-9-((8S,9S,10R,13S,14S,17S)-10,13-dimethyl-3-oxo-2,3,6,7,8,9,10,11,12,13,14,15,16,17-tetradecahydro-1H-cyclopenta[a]phenanthren-17-yl)-5-isobutyl-7-oxa-2,5,8-triazadec-8-en-6-one 2,2,2-trifluoroacetate]",> 24,> 750,–,83,–
"CCNCCN(CC)C(=O)O/N=C(\C)[C@H]1CC[C@H]2[C@@H]3CCC4=CC(=O)CC[C@]4(C)[C@H]3CC[C@]12C.Cl [54a, (E)-2-((8S,9S,10R,13S,14S,17S)-10,13-dimethyl-3-oxo-2,3,6,7,8,9,10,11,12,13,14,15,16,17-tetradecahydro-1H-cyclopenta[a]phenanthren-17-yl)-6-ethyl-4-oxa-3,6,9-triazaundec-2-en-5-one hydrochloride]",> 24,> 750,–,71,–
"C/C(=N\OC(=O)N(CCNC(C)C)C(C)C)[C@H]1CC[C@H]2[C@@H]3CCC4=CC(=O)CC[C@]4(C)[C@H]3CC[C@]12C.Cl [54b, (E)-2-((8S,9S,10R,13S,14S,17S)-10,13-dimethyl-3-oxo-2,3,6,7,8,9,10,11,12,13,14,15,16,17-tetradecahydro-1H-cyclopenta[a]phenanthren-17-yl)-6-isopropyl-10-methyl-4-oxa-3,6,9-triazaundec-2-en-5-one hydrochloride]",> 24,> 500,–,84,–
"C/C(=N\OC(=O)N(CCO)CCNCCO)[C@H]1CC[C@H]2[C@@H]3CCC4=CC(=O)CC[C@]4(C)[C@H]3CC[C@]12C.Cl [54d, (E)-2-((8S,9S,10R,13S,14S,17S)-10,13-dimethyl-3-oxo-2,3,6,7,8,9,10,11,12,13,14,15,16,17-tetradecahydro-1H-cyclopenta[a]phenanthren-17-yl)-11-hydroxy-6-(2-hydroxyethyl)-4-oxa-3,6,9-triazaundec-2-en-5-one hydrochloride]",–,> 750,28.79 ± 3.16,32,–
C/C(=N/OCOP(=O)([O-])[O-])[C@H]1CC[C@H]2[C@@H]3CCC4=CC(=O)CC[C@]4(C)[C@H]3CC[C@]12C.[Na+].[Na+] [EIDD-1723],–,–,–,–,"increase in the dose-corrected exposure to parent progesterone C20-oxime, IM compared to the IV route [4]: 3 fold; Parent AUClast ([4]; im, 10 mg/kg): 753 ± 29 ng·h/mL; Parent AUClast ([4]; iv, 2 mg/kg): 48 ± 6 ng·h/mL; Parent Cmax ([4]; iv, 2 mg/kg): 219 ng/mL"
"C/C(=N\OC(=O)NCCN(C)C)[C@H]1CC[C@H]2[C@@H]3CCC4=CC(=O)CC[C@]4(C)[C@H]3CC[C@]12C.Cl [compound 34, (E)-9-((8S,9S,10R,13S,14S,17S)-10,13-dimethyl-3-oxo-2,3,6,7,8,9,10,11,12,13,14,15,16,17-tetradecahydro-1H-cyclopenta[a]phenanthren-17-yl)-2-methyl-7-oxa-2,5,8-triazadec-8-en-6-one hydrochloride]",–,> 750,–,–,"half-life [1, 6]: 787 h; Plasma t1/2 [3]: >3.5 h"
